Measurements taken from US9359371B2, “Bicyclic substituted pyrimidine compounds” (Xuanzhu Pharma Co., Ltd., priority 2012, dated 2016).
Like-named read-outs stand apart in the source and are kept apart here. Values belong to the compound of their own block, whether it stands above or below them.

Tests used:
PDE-5A enzyme = PDE-5A enzyme (Homo sapiens (Human), UniProt O76074); test: Caliper Mobility-Shift PDE-5A Assay; assay type: biochemical; details: Table 1; Avanafil value is the control
Description: Experiment 1: Measurement of Enzymatic Activity In Vitro
PDE-5A enzyme: humanized PDE-5 enzyme, SignalChem, Cat#93-31G-20.
Method: enzyme assay, Caliper Mobility-Shift PDE-5A Assay:
The test compound was accurately weighed, dissolved in DMSO, mixed thoroughly and formulated into 10 mM.
The maximum final concentration of the compound was 10 μM. The plate was incubated at 30° C. for 1 h, and 20 μL of 70 μM EDTA was then added to stop the reaction. 26 μL of solution of each well was transferred to a 384-well plate. The conversion was read on a EZ reader II. The inhibition rate was calculated by the formula below, and used to calculate IC50 by Prism 5.0 Inhibition rate=[Conversion (ZPE)−Conversion (sample)]×100/[Conversion (ZPE)−Conversion (HPE)]
Note: HPE: control without enzyme; ZPE: control without a test compound

[1] = Pharmacokinetics (PK) in SD rats; assay type: in vivo; details: rat; for half-life / bioavailability / AUC(0-inf) / Cmax / Tmax: SD, plasma; for bioavailability: read-out: F % (absolute bioavailability)
Description: Experiment 9: Assay of Pharmacokinetics (PK) of the Compounds of the Present Invention in SD Rats
Compound 1-54 of the present invention were prepared by the methods described in Example 1 to Example 54 of the present invention.
The control drug Avanafil, of which the structure was stated above, was purchased commercially.
Collection of the rat's blood: The animal was fixed. The tail was warmed with a water bath 10 min before the collection time. About 200 μL of whole blood was collected from the tail vein. The collected blood was collected into anticoagulant tubes containing heparin sodium. The blood samples were centrifuged at 4° C. by 8000 rpm for 6 min to give the plasma samples, which should be prepared within 30 min after the collection of blood. The plasma samples were stored in a freezer of −80° C. until test.
The result output by Analyst 1.5.1 of AB Company was used as the concentration of the tested sample (plasma sample). The mean value, standard deviation, variable coefficient and the like were calculated by Microsoft Excel (except for the result directly output by Analyst 1.5.1). Parameters of PK were calculated by Pharsight Phoenix 6.2 software. Formula for calculating oral bioavailability: F %=AUCinf−po*Doseiv/AUCinf−iv*Dosepo.

[2] = po, intragastric administration, 2 mg/kg
[3] = po, intragastric administration, 5 mg/kg

Structure (SMILES): COc1ccc(CNc2nc(N3CCC4(CC4)C3)ncc2C(=O)N[C@H]2CC[C@H](O)CC2)cc1Cl (stereo in doubt) [Compound 43, 4-((3-chloro-4-methoxybenzyl)amino)-N-(trans-4-hydroxycyclohexyl)-2-(5-azaspiro[2.4]heptan-5-yl)pyrimidine-5-formamide]
IC50 (PDE-5A enzyme): 15.4 nM | half-life [1, 2]: 3.31 h | bioavailability [1, 2]: 18% | half-life ([1]; intravenous injection, 1 mg/kg): 1.3 h | Cl_obs ([1]; intravenous injection, 1 mg/kg): 53.8 mL/min/kg | Vss_obs ([1]; intravenous injection, 1 mg/kg): 5.18 L/kg

AUC(0-inf) [1, 2]: 69 ng·h/mL | Cmax [1, 2]: 12 ng/mL | Tmax [1, 2]: 1 h | half-life [1, 2]: 2.95 h | bioavailability [1, 2]: 12% | AUC(0-inf) ([1]; intravenous injection, 1 mg/kg): 219 ng·h/mL | half-life ([1]; intravenous injection, 1 mg/kg): 1.78 h | Cl_obs ([1]; intravenous injection, 1 mg/kg): 77.2 mL/min/kg | Vss_obs ([1]; intravenous injection, 1 mg/kg): 10.57 L/kg
Structure (SMILES): COc1ccc(CNc2nc(N3CC4CC4C3)ncc2C(=O)NCc2ccccn2)cc1Cl (centres unmarked) [Compound 2, 2-(3-azabicyclo[3.1.0]hexan-3-yl)-4-((3-chloro-4-methoxybenzyl)amino)-N-(pyridin-2-ylmethyl)pyrimidine-5-formamide]

IC50 (PDE-5A enzyme): 26.8 nM
Structure (SMILES): COc1ccc(CNc2nc(N3CCC4(CC3)CC4)ncc2C(=O)NCc2ncccn2)cc1Cl [Compound 15, 4-((3-chloro-4-methoxybenzyl)amino)-N-(pyrimidin-2-ylmethyl)-2-(6-azaspiro[2.5]octan-6-yl)pyrimidine-5-formamide]

IC50 (PDE-5A enzyme): 17.3 nM
Structure (SMILES): COc1ccc(CNc2nc(N3CCC4(CC4)C3)ncc2C(=O)NCc2ccccc2)cc1Cl [Compound 21, N-benzyl-4-((3-chloro-4-methoxybenzyl)amino)-2-(5-azaspiro[2.4]heptan-5-yl)pyrimidine-5-formamide]

IC50 (PDE-5A enzyme): 47 nM
Structure (SMILES): COc1ncc(CNc2nc(N3CC4CC4C3)ncc2C(=O)NCc2ncccn2)cc1Cl (centres unmarked) [Compound 25, 2-(3-diazabicyclo[3.1.0]hexan-3-yl)-4-(((5-chloro-6-methoxypyridin-3-yl)methyl)amino)-N-(pyrimidin-2-ylmethyl)pyrimidine-5-formamide]

IC50 (PDE-5A enzyme): 10.4 nM
Structure (SMILES): COc1ccc(CNc2nc(N3CC4CC4C3CO)ncc2C(=O)NCc2ncccn2)cc1Cl (centres unmarked) [Compound 27, 4-((3-chloro-4-methoxybenzyl)amino)-2-(2-(hydroxylmethyl)-3-azabicyclo[3.1.0]hexan-3-yl)-N-(pyrimidin-2-ylmethyl)pyrimidine-5-formamide]

IC50 (PDE-5A enzyme): 22.6 nM
Structure (SMILES): COc1ccc(CNc2nc(N3CCC4(CCC4)C3)ncc2C(=O)NCc2ccccc2)cc1Cl [Compound 28, N-benzyl-4-((3-chloro-4-methoxybenzyl)amino)-2-(6-azaspiro[3.4]octan-6-yl)pyrimidine-5-formamide]

IC50 (PDE-5A enzyme): 4.63 nM | AUC(0-inf) [1, 2]: 24 ng·h/mL | Cmax [1, 2]: 6.5 ng/mL | Tmax [1, 2]: 0.5 h | half-life [1, 2]: 2.26 h | bioavailability [1, 2]: 3.5% | AUC(0-inf) ([1]; intravenous injection, 1 mg/kg): 212 ng·h/mL | half-life ([1]; intravenous injection, 1 mg/kg): 1.68 h | Cl_obs ([1]; intravenous injection, 1 mg/kg): 80.2 mL/min/kg | Vss_obs ([1]; intravenous injection, 1 mg/kg): 12.05 L/kg
Structure (SMILES): COc1ccc(CNc2nc(N3CC4CC4C3CO)ncc2C(=O)NCc2ccccc2)cc1Cl (centres unmarked) [Compound 32, N-benzyl-4-((3-chloro-4-methoxybenzyl)amino)-2-(2-(hydroxymethyl)-3-azabicyclo[3.1.0]hexan-3-yl)pyrimidine-5-formamide]

IC50 (PDE-5A enzyme): 34.9 nM
Structure (SMILES): COc1ccc(CNc2nc(N3CC4CC4C3CO)ncc2C(=O)NCCN2CCOCC2)cc1Cl (centres unmarked) [Compound 34, 4-((3-chloro-4-methoxybenzyl)amino)-2-(2-(hydroxymethyl)-3-azabicyclo[3.1.0]hexan-3-yl)-N-(2-morpholinoethyl)pyrimidine-5-formamide]

IC50 (PDE-5A enzyme): 47.2 nM
Structure (SMILES): COc1ccc(CNc2nc(N3CC4CC4C3CO)ncc2C(=O)N[C@H]2CC[C@H](O)CC2)cc1Cl (stereo partly drawn) [Compound 35, 4-((3-chloro-4-methoxybenzyl)amino)-N-(trans-4-hydroxycyclohexyl)-2-(2-(hydroxymethyl)-3-azabicyclo[3.1.0]hexan-3-yl)pyrimidine-5-formamide]

IC50 (PDE-5A enzyme): 52.4 nM
Structure (SMILES): COc1ccc(CNc2nc(N3CCC4(CC3)CC4)ncc2C(=O)N[C@H]2CC[C@H](O)CC2)cc1Cl [Compound 36, 4-((3-chloro-4-methoxybenzyl)amino)-N-(trams-4-hydroxycyclohexyl)-2-(6-azaspiro[2.5]octan-6-yl)pyrimidine-5-formamide]

IC50 (PDE-5A enzyme): 33.3 nM
Structure (SMILES): COc1ccc(CNc2nc(N3CC4CC4C3CO)ncc2C(=O)NCc2ccccn2)cc1Cl (centres unmarked) [Compound 37, 4-((3-chloro-4-methoxybenzyl)amino)-2-(2-(hydroxymethyl)-3-azabicyclo[3.1.0]hexan-3-yl)-N-(pyridin-2-ylmethyl)pyrimidine-5-formamide]

Structure (SMILES): COc1ccc(CNc2nc(N3CCC4(CC4)C3)ncc2C(=O)NCCN2CCOCC2)cc1Cl [Compound 39, 4-((3-chloro-4-methoxybenzyl)amino)-N-(2-morpholinoethyl)-2-(5-azaspiro[2.4]heptan-5-yl)pyrimidine-5-formamide]
IC50 (PDE-5A enzyme): 21.4 nM

Structure (SMILES): COc1ccc(CNc2nc(N3CCC4(CC4)C3)ncc2C(=O)NCc2ccccn2)cc1Cl [Compound 40, 4-((3-chloro-4-methoxybenzyl)amino)-N-(pyridin-2-ylmethyl)-2-(5-azaspiro[2.4]heptan-5-yl)pyrimidine-5-formamide]
IC50 (PDE-5A enzyme): 11.9 nM | AUC(0-inf) [1, 2]: 57 ng·h/mL | Cmax [1, 2]: 13.9 ng/mL | Tmax [1, 2]: 0.5 h | half-life [1, 2]: 3.58 h | bioavailability [1, 2]: 9.5% | AUC(0-inf) ([1]; intravenous injection, 1 mg/kg): 205 ng·h/mL | half-life ([1]; intravenous injection, 1 mg/kg): 2.73 h | Cl_obs ([1]; intravenous injection, 1 mg/kg): 81.3 mL/min/kg | Vss_obs ([1]; intravenous injection, 1 mg/kg): 16.40 L/kg

AUC(0-inf) [1, 3]: 5840 ng·h/mL | Cmax [1, 3]: 505 ng/mL | Tmax [1, 3]: 4 h | half-life [1, 3]: 4.1 h | bioavailability [1, 3]: 60% | AUC(0-inf) ([1]; intravenous injection, 2 mg/kg): 3860 ng·h/mL | half-life ([1]; intravenous injection, 2 mg/kg): 3.9 h | Cl_obs ([1]; intravenous injection, 2 mg/kg): 8.67 mL/min/kg | Vss_obs ([1]; intravenous injection, 2 mg/kg): 2.46 L/kg
Structure (SMILES): CCOc1ccc(CNc2nc(N3CC4CC4C3)ncc2C(=O)N[C@H]2CC[C@H](O)CC2)cc1F (stereo partly drawn) [Compound 49, 2-(3-azabicyclo[3.1.0]hexan-3-yl)-4-((3-fluoro-4-ethoxybenzyl)amino)-N-((trans)-4-hydroxycyclohexyl)pyrimidine-5-formamide]

AUC(0-inf) [1, 3]: 5800 ng·h/mL | Cmax [1, 3]: 402 ng/mL | Tmax [1, 3]: 6 h | half-life [1, 3]: 7.3 h | bioavailability [1, 3]: 52% | AUC(0-inf) ([1]; intravenous injection, 2 mg/kg): 4400 ng·h/mL | half-life ([1]; intravenous injection, 2 mg/kg): 8.8 h | Cl_obs ([1]; intravenous injection, 2 mg/kg): 7.83 mL/min/kg | Vss_obs ([1]; intravenous injection, 2 mg/kg): 5.58 L/kg
Structure (SMILES): CCOc1ccc(CNc2nc(N3CC4CC4C3)ncc2C(=O)N[C@H]2CC[C@H](O)CC2)cc1C (stereo partly drawn) [Compound 51, 2-(3-azabicyclo[3.1.0]hexan-3-yl)-N-(trans-4-hydroxycyclohexyl)-4-((4-ethoxy-3-methylbenzyl)amino)pyrimidine-5-formamide]

AUC(0-inf) [1, 3]: 6000 ng·h/mL | Cmax [1, 3]: 392 ng/mL | Tmax [1, 3]: 6 h | half-life [1, 3]: 8.4 h | bioavailability [1, 3]: 65% | AUC(0-inf) ([1]; intravenous injection, 2 mg/kg): 3710 ng·h/mL | half-life ([1]; intravenous injection, 2 mg/kg): 4.6 h | Cl_obs ([1]; intravenous injection, 2 mg/kg): 9 mL/min/kg | Vss_obs ([1]; intravenous injection, 2 mg/kg): 3.02 L/kg
Structure (SMILES): CCOc1ccc(CNc2nc(N3CC4CC4C3)ncc2C(=O)N[C@H]2CC[C@H](O)CC2)cc1Cl (stereo partly drawn) [Compound 52, 2-(3-azabicyclo[3.1.0]hexan-3-yl)-4-((3-chloro-4-ethoxybenzyl)amino)-N-((trans)-4-hydroxycyclohexyl)pyrimidine-5-formamide]

AUC(0-inf) [1, 3]: 917 ng·h/mL | Cmax [1, 3]: 156 ng/mL | Tmax [1, 3]: 4 h | bioavailability [1, 3]: 25% | AUC(0-inf) ([1]; intravenous injection, 2 mg/kg): 1500 ng·h/mL | half-life ([1]; intravenous injection, 2 mg/kg): 1.8 h | Cl_obs ([1]; intravenous injection, 2 mg/kg): 22.3 mL/min/kg | Vss_obs ([1]; intravenous injection, 2 mg/kg): 2.33 L/kg
Structure (SMILES): COc1ccc(CNc2nc(N3CC4CC4C3)ncc2C(=O)N[C@H]2CC[C@H](O)CC2)cc1C(F)(F)F (stereo partly drawn) [Compound 53, 2-(3-azabicyclo[3.1.0]hexan-3-yl)-N-((trans)-4-hydroxycyclohexyl)-4-((4-methoxy-3-(trifluoromethyl)benzyl)amino)pyrimidine-5-formamide]

AUC(0-inf) [1, 3]: 1420 ng·h/mL | Cmax [1, 3]: 200 ng/mL | Tmax [1, 3]: 4 h | half-life [1, 3]: 2.7 h | bioavailability [1, 3]: 40% | AUC(0-inf) ([1]; intravenous injection, 2 mg/kg): 1430 ng·h/mL | half-life ([1]; intravenous injection, 2 mg/kg): 2.3 h | Cl_obs ([1]; intravenous injection, 2 mg/kg): 23.8 mL/min/kg | Vss_obs ([1]; intravenous injection, 2 mg/kg): 3.87 L/kg
Structure (SMILES): CCOc1ccc(CNc2nc(N3CC4CC4C3)ncc2C(=O)N[C@H]2CC[C@H](O)CC2)cc1C(F)(F)F (stereo partly drawn) [Compound 54, 2-(3-azabicyclo[3.1.0]hexan-3-yl)-N-((trans)-4-hydroxycyclohexyl)-4-((4-ethoxy-3-(trifluoromethyl)benzyl)amino)pyrimidine-5-formamide]
